This is an account of results in ChEMBL document CHEMBL3399952, “Design and synthesis of novel anti-tuberculosis agents from the celecoxib pharmacophore” (Bioorg Med Chem, 2015).

One may read the IC50 as the midpoint of a concentration-inhibition curve.

Calls of active or inactive are those of the source. The rule behind the calls is not given here.

Series [1] concerns Mycobacterium tuberculosis. In words: Antimycobacterial activity against Mycobacterium tuberculosis H37Rv expressing Lux assessed as reduction in growth measured after 3 weeks by bioluminescence assay. In kind it is functional, organism-based. The note with it: 504 h.
In series [2] the test system is Mycobacterium tuberculosis. Put plainly: Antimycobacterial activity against Mycobacterium tuberculosis H37Rv expressing Lux infected in human macrophages assessed as reduction in growth measured at <= 2.5 uM after 72 hrs by bioluminescence assay. In kind it is functional, organism-based.
Series [3] has as its system Mycobacterium tuberculosis. Put plainly: Antimycobacterial activity against Mycobacterium tuberculosis H37Rv assessed as reduction in growth measured at <= 2.5 uM after 72 hrs by CFU assay. In kind it is functional.
Series [4] can be described thus: Cytotoxicity against human macrophages assessed as cell death at 1.25 to 40 uM after 48 hrs by TMRE-based assay. The note with it: macrophage.
Series [5] concerns Mycobacterium tuberculosis. In words: Antimycobacterial activity against Mycobacterium tuberculosis H37Rv expressing Lux infected in human macrophages assessed as […] reduction in growth measured at 5 uM after 48 hrs by bioluminescence assay. It counts as functional, organism-based.
Series [6] can be described thus: Cytotoxicity against human macrophages assessed as cell death at > 10 uM by TMRE-based assay. The conditions noted are these: macrophage.
Series [7] has as its system Mycobacterium tuberculosis. Put plainly: Antimycobacterial activity against Mycobacterium tuberculosis H37Rv assessed as reduction in growth measured after 48 hrs by CFU assay. In kind it is functional.
Series [8] concerns Mycobacterium tuberculosis. In words: Antimycobacterial activity against Mycobacterium tuberculosis H37Rv expressing Lux infected in human macrophages assessed as reduction in growth measured at 5 to 20 uM after 3 weeks by bioluminescence assay. In kind it is functional, organism-based.
For series [9], the system named is Mycobacterium tuberculosis. In words: Antimycobacterial activity against Mycobacterium tuberculosis H37Rv expressing Lux assessed as reduction in growth measured at 5 uM after 3 weeks by bioluminescence assay. It counts as functional, organism-based.
Series [10] can be described thus: Cytotoxicity against human macrophages assessed as cell death at 20 uM by TMRE-based assay. More on the design: species or system Macrophage. The note with it: read-out: INH.

Turning to `CNC(=O)CCc1cc(-c2ccc(-c3ccc(C(F)(F)F)cc3)cc2)n(-c2ccc(NC(=O)c3cn(C)cn3)cc2)n1`, the IC50 in [1] was 180 nM. Besides, the inhibition result in series [2] is “Active”. In series [3], the “fold change (FC)” value was more than 1. In addition, the Activity entry in series [4] is recorded as “Non-toxic”.
For `CNC(=O)CCc1cc(-c2ccc(-c3ccc(C(F)(F)F)cc3)cc2)n(-c2ccc(NC(=O)c3ccncc3)cc2)n1`, the IC50 in [1] was 480 nM. For the same compound, the inhibition result in series [2] and in series [5] was “Active” in each case. For the same compound, the “fold change (FC)” value in [3] is reported as more than 1. Further, the Activity result in series [4] is recorded as “Non-toxic”.
Consider `CNC(=O)CCc1cc(-c2ccc(-c3ccc(C(F)(F)F)cc3)cc2)n(-c2ccc(NC(=O)c3ccc(N)cc3)cc2)n1`, for which the IC50 in [1] amounted to 320 nM. Also, in series [6], the Activity entry is reported as “Toxic”. For the same compound, in series [2], the inhibition result was “Active”. The “fold change (FC)” value in [3] was more than 1.
As for `CCc1nc2ccc(Cl)cn2c1C(=O)NCc1ccc(N2CCC(c3ccc(OC(F)(F)F)cc3)CC2)cc1` [TELACEBEC], in series [1], the IC50 is less than 3 nM.
In the case of `COc1nc2ccc(Br)cc2cc1[C@@H](c1ccccc1)[C@@](O)(CCN(C)C)c1cccc2ccccc12` [BEDAQUILINE], the IC50 in series [1] is 50 nM.
Take `NS(=O)(=O)Nc1ccc(-n2nc(C(F)(F)F)cc2-c2ccc3c(ccc4ccccc43)c2)cc1`: the “fold change (FC)” value in series [7] was 1.
Take `CNC(=O)CCc1cc(-c2ccc(-c3ccc(C(F)(F)F)cc3)cc2)n(-c2ccc(NS(=O)(=O)NC(=O)OC(C)(C)C)cc2)n1`: the inhibition entry in series [8] and in series [9] was “Active” each time. Also, the cytotoxicity at 20 µM in [10] stood at 26%.
With `NNC(=O)c1ccncc1` [ISONIAZID], the IC50 in [1] was found to be 330 nM. Further, the inhibition result in series [9] was “Active”.
`CNC(=O)CCc1cc(-c2ccc(-c3ccc(C(F)(F)F)cc3)cc2)nn1-c1ccc(NC(=O)c2ccncc2)cc1`: the IC50 in series [1] was found to be 270 nM. The inhibition result in [2] and in series [5] was “Active” each time. The “fold change (FC)” value in series [3] is more than 1. In [4], the Activity entry is on record as “Non-toxic”.
Turning to `CNC(=O)CCc1cc(-c2ccc(-c3ccc(C(F)(F)F)cc3)cc2)n(-c2ccc(NS(=O)(=O)N(C)C)cc2)n1`, in series [1], the half-inhibitory concentration (IC50) came out at 2200 nM. Also, the inhibition entry in [8] and in series [9] was “Active” each time. The cytotoxicity at 20 µM in [10] was 4%.
Turning to `CNC(=O)CCc1cc(-c2ccc(-c3ccc(C(F)(F)F)cc3)cc2)n(-c2ccc(NC(=O)c3ccncc3Cl)cc2)n1`, the IC50 in series [1] was determined as 430 nM. Further, in series [2], the inhibition entry was “Active”. Also, the “fold change (FC)” value in series [3] was more than 1. Besides, the Activity entry in series [4] is reported as “Non-toxic”.
Take `O=[N+]([O-])c1cn2c(n1)OC[C@@H](OCc1ccc(OC(F)(F)F)cc1)C2` [PRETOMANID]: the 50% inhibitory concentration (IC50) in series [1] is 400 nM.
For `CNC(=O)CCc1cc(-c2ccc(-c3ccc(C(F)(F)F)cc3)cc2)n(-c2ccc(NC(=O)c3ccnc(C)c3)cc2)n1`, the IC50 in series [1] was determined as 290 nM. Moreover, the inhibition result in [2] and in [5] was “Active” each time. Further, in series [3], the “fold change (FC)” value is listed as more than 1. The Activity entry in series [4] was “Non-toxic”.
